Experimental data as given in article PMC9960827, “Cloning and Characterization of Trypanosoma congolense and T. vivax Nucleoside Transporters Reveal the Potential of P1-Type Carriers for the Discovery of Broad-Spectrum Nucleoside-Based Therapeutics against Animal African Trypanosomiasis” (International Journal of Molecular Sciences, 2023).
Several values for one entry are separate records, joined by “and”; a condition that tells them apart may be missing. Identical values can stand only once. Like-named read-outs stand apart in the source and are kept apart here.

Key:
TvxNT3 = TvxNT3 (Trypanosoma vivax, UniProt F9WV62); test: cell-based; type: cell-based; details: for ΔG0: Gibbs free energy of interaction, from Km or Ki; for δ(ΔG0): difference in ΔG0 relative to the parent purine (adenosine or inosine); for remaining activity at 100 µM: read-out: [3H]-adenosine uptake remaining in presence of inhibitor
Text: (§1) The information for the T. congolense adenosine transporter (TcoAT1) and four putative T. vivax nucleoside transporters was obtained in the TritrypDB (tritrypdb.org/tritrypdb) genome database. Primers were designed to flank each gene upstream of the 5′ end (forward) and downstream of the 3′ end (reverse) as described (primer sequences in Supplementary Table S2). Following amplification from the genomic DNA of T. congolense or T. vivax, DNA for each extracted gene was ligated into the pNUS-HcN expression vector doubly digested with NdeI using the NEBuilder kit according to the manufacturer’s instructions (New England Biolabs). Construct was transformed into competent E. coli cells, and ligation was confirmed by restriction enzyme digestion of isolated plasmid DNA followed by Sanger sequencing (Source BioScience, Nottingham, UK). Confirmed plasmids were then transfected into L. mexicana cell line in which both NT1 and NT2 were doubly knocked out (SUPKO) and derived from L. mexicana Cas9 [64] as described. Clones grown in medium containing 50 μg/mL neomycin (G418) were collected for further confirmation by PCR with genomic DNA using a forward primer of the transporter gene and a reverse primer of the plasmid.
(§2) Uptake assays using radiolabeled trypanocides and/or nucleosides were carried out as described previously. Briefly, parasite cultures were harvested, washed twice in assay buffer (33 mM HEPES, 98 mM NaCl, 4.6 mM KCl, 0.5 mM CaCl2, 0.07 mM MgSO4, 5.8 mM NaH3PO4, 0.03 mM MgCl2, 23 mM NaHCO3, 14 mM D-glucose, pH 7.3), then resuspended and adjusted to a density of 1 × 10^8 cells/mL in assay buffer. The radiolabeled permeant in the presence or absence of different concentrations of potential inhibitors reconstituted in 100 μL assay buffer was deposited on top of 250 μL oil mix in microcentrifuge tubes; 1 × 10^7 parasites in 100 μL assay buffer were added to the tube and incubated for a pre-determined interval. The reaction was stopped by the addition of 1 mL of a high concentration of ice-cold unlabeled substrate in assay buffer (‘stop solution’) and centrifugation, or by immediate centrifugation at […] as appropriate. The microcentrifuge tubes were flash-frozen, and the bottom of each tube containing the cell pellet was cut off and transferred to a scintillation vial. Cell pellets were lysed in 2% SDS, after which scintillation fluid (Scintlogic U, Lablogic) was added, followed by overnight incubation in the dark. Scintillation was measured in a 300SL (Hidex) scintillation counter (Hidex). All the assays were conducted in triplicate and analysis was carried out using Microsoft Excel and GraphPad Prism. All kinetic parameters were obtained on at least 3 separate occasions.
(§3) The dose-dependent uptake assay allowed for the affinity of nucleoside analogs to different nucleoside transporters to be determined by measuring the extent to which the analogs compete with and inhibit the uptake of radiolabel adenosine. This allowed for the determination of biochemical parameters such as Km and Vmax through the application of the Michaelis–Menten equation V0 = Vmax([substrate]/([substrate] + Km)). The 50% Inhibitory Concentration (IC50) of the purines and pyrimidines and their analogs was determined from non-linear regression to sigmoid curves with variable slope (Prism 8), and the IC50 of the inhibitor and the Km of the labeled permeant were then used to calculate the inhibition constant (Ki) of the analogs through the Cheng–Prusoff equation: Ki = IC50/(1 + (L/Km)), where L denotes the radiolabel concentration. The calculated Ki was in turn used to determine the Gibbs free energy (ΔG^0) of the inhibitor–transporter interaction using the equation: ΔG^0 = -RTln(Ki), where R represents the gas constant and T symbolizes the absolute temperature in Kelvin [104].

TcoAT1 = type: cell-based, Trypanosoma congolense; details: for Ki: 0.05 µM [3H]-adenosine, 10 s, IC50 converted to Ki, read-out: Ki on the transport of [3H]-adenosine; for ΔG0: Gibbs free energy of binding, from Km or Ki; for δ(ΔG0): loss of Gibbs free energy of binding relative to the parent nucleoside
Text: as §1, §2, §3

L. mexicana Cas9 = test: Resazurin drug sensitivity assay, LmexCas9; type: cell-based, Leishmania mexicana; details: read-out: LmexCas9 EC50
Description: (§4) EC50 values were determined by plotting to an equation for a sigmoid curve with variable slope (GraphPad Prism 8). All values were the average of at least three independent determinations on different days.

L. mexicana SUPKO+TcoAT1 = test: microbe, parasite or virus in culture; type: cell-based, Leishmania mexicana; details: for EC50: read-out: SUPKO+TcoAT1 EC50
Description: as §4

L. mexicana SUPKO+TvxNT3 = test: microbe, parasite or virus in culture; type: cell-based, Leishmania mexicana; details: for EC50: read-out: SUPKO+TvxNT3 EC50
Description: as §4

L. mexicana SUPKO = test: microbe, parasite or virus in culture; type: cell-based, Leishmania mexicana
Description: as §4

[1] = biological target: T. congolense adenosine transporter; test: [3H]-adenosine uptake and its inhibition in T. congolense IL3000 bloodstream forms; type: cell-based, Trypanosoma congolense; details: for Ki: 0.05 µM [3H]-adenosine, 30 s, IC50 converted to Ki, read-out: Ki on the transport of [3H]-adenosine; for ΔG0, Gibbs free energy of interaction: calculated from Km or Ki; for Ki values fold higher than those for the purines: inhibition of adenosine uptake
Description: as §2, §3

[2] = biological target: T. b. brucei P1 (TbP1/NT2); details: cited from earlier work; for Ki: T. b. brucei bloodstream forms, read-out: Tbb P1 Ki
[3] = resazurin, promastigotes, read-out: SUPKO EC50
[4] = Resistance Factor relative to SUPKO

TvxNT3, sequence (F9WV62 entry or part of it): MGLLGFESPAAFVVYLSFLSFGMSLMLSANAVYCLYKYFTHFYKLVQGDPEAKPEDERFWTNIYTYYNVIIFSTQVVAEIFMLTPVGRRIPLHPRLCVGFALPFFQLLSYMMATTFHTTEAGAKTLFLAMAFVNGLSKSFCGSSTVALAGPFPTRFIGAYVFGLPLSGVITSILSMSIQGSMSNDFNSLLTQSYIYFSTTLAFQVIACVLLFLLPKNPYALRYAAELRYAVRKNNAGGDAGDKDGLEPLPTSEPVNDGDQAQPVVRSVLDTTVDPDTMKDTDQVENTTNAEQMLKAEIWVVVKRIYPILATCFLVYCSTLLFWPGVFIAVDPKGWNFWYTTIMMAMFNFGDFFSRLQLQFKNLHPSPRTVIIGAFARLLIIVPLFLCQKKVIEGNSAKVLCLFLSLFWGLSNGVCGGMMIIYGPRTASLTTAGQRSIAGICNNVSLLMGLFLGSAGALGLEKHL

| Structure (SMILES) | ΔG0 (TvxNT3) | Ki (TcoAT1) | ΔG0 (TcoAT1) | δ(ΔG0) (TcoAT1) | δ(ΔG0) (TvxNT3) | also measured |
| --- | --- | --- | --- | --- | --- | --- |
| OC[C@H]1O[C@@H](n2cnc3c(O)nccc32)[C@H](O)[C@@H]1O [3-deazainosine] | -6.12 kcal/mol | – | – | – | – | – |
| OC[C@H]1O[C@@H](n2cnc3c(S)ncnc32)[C@H](O)[C@@H]1O [6-thioinosine] | -7.36 kcal/mol | – | – | – | – | – |
| OC[C@@H]1CC[C@H](n2cnc3c(O)ncnc32)O1 [2′,3′-dideoxyinosine] | – | 85.4 ± 7.1 µM | -5.54 kcal/mol | 2.99 kcal/mol | – | – |
| Cc1ccc(C(=O)Nc2ccc(S(=O)(=O)O)c3cc(S(=O)(=O)O)cc(S(=O)(=O)O)c23)cc1NC(=O)c1cccc(NC(=O)Nc2cccc(C(=O)Nc3cc(C(=O)Nc4ccc(S(=O)(=O)O)c5cc(S(=O)(=O)O)cc(S(=O)(=O)O)c45)ccc3C)c2)c1 [suramin, reference compound] | – | – | – | – | – | EC50 (L. mexicana Cas9; Leishmania mexicana): > 100 µM; EC50 (L. mexicana SUPKO+TcoAT1; Leishmania mexicana): > 100 µM; EC50 (L. mexicana SUPKO+TvxNT3; Leishmania mexicana): > 100 µM; EC50 (L. mexicana SUPKO; Leishmania mexicana, read-out: SUPKO EC50, resazurin, promastigotes): > 100 µM |
| Nc1ncnc2c1ncn2[C@H]1CC[C@@H](CO)O1 [2′,3′-dideoxyadenosine] | – | 51.9 ± 2.6 µM | -5.83 kcal/mol | 2.856 kcal/mol | – | – |
| NCCS[As](SCCN)c1ccc(Nc2nc(N)nc(N)n2)cc1 [melarsomine, reference compound] | – | – | – | – | – | EC50 (L. mexicana Cas9; resazurin, promastigotes): > 100 µM; EC50 (L. mexicana SUPKO+TcoAT1; resazurin, promastigotes): > 100 µM; EC50 (L. mexicana SUPKO+TvxNT3; resazurin, promastigotes): > 100 µM; EC50 (L. mexicana SUPKO; [3]): > 100 µM |
| Nc1ncnc2c1c(-c1ccccc1)cn2C1OC(CO)C(O)C1O (centres unmarked) [TH1012, 7-phenyltubercidin] | – | 146 ± 58 µM | -5.23 kcal/mol | – | – | – |
| Nc1ncnc2c1ncn2[C@H]1C[C@H](O)[C@@H](CO)O1 [2′-deoxyadenosine] | -8.15 kcal/mol | 0.5 ± 0.07 µM | -8.6 kcal/mol | 0.105 kcal/mol | 0.167 kcal/mol | – |
| COc1ncnc2c1ccn2[C@@H]1O[C@H](CO)[C@@H](O)[C@H]1O [CL4510, 6-methoxy-7-deazapurine riboside] | -6.55 kcal/mol | 226 ± 26 µM | -4.97 kcal/mol | – | – | Ki (TvxNT3; 50 nM [3H]-adenosine, 90 s, IC50 converted to Ki, read-out: Ki on the transport of [3H]-adenosine): 16.1 ± 2.8 µM; EC50 (L. mexicana Cas9; resazurin, promastigotes): 0.39 ± 0.05 µM; SUPKO+TcoAT1 RF (SUPKO) (L. mexicana SUPKO+TcoAT1; [4]): 1.03; EC50 (L. mexicana SUPKO+TcoAT1; resazurin, promastigotes): 2.2 ± 0.03 µM; SUPKO+TvxNT3 RF (SUPKO) (L. mexicana SUPKO+TvxNT3; [4]): 1.1; EC50 (L. mexicana SUPKO+TvxNT3; resazurin, promastigotes): 2.05 ± 0.04 µM; SUPKO RF (Cas9) (L. mexicana SUPKO; Resistance Factor = EC50(SUPKO)/EC50(Cas9)): 5.84; EC50 (L. mexicana SUPKO; [3]): 2.3 µM and 2.28 µM |
| Nc1ccn([C@@H]2O[C@H](CO)[C@@H](O)[C@H]2O)c(=O)n1 [Cytidine] | – | 1580 ± 69.2 µM | -3.82 kcal/mol | 4.878 kcal/mol | – | Ki [1]: 1180 ± 148 µM; ΔG0, Gibbs free energy of interaction [1]: -3.99 kcal/mol; Ki values fold higher than those for the purines [1]: > 90 fold; Ki [2]: > 250 µM |
| Nc1ccnc2c1ncn2[C@@H]1O[C@H](CO)[C@@H](O)[C@H]1O [1-deazaadenosine] | – | 1.03 ± 0.34 µM | -8.17 kcal/mol | 0.535 kcal/mol | – | – |
| Nc1nc2c(ncn2[C@@H]2O[C@H](CO)[C@@H](O)[C@H]2O)c(=O)[nH]1 [Guanosine] | -7.995 kcal/mol | 0.8 ± 0.09 µM | -8.32 kcal/mol | 0.387 kcal/mol | 0.017 kcal/mol | Ki [1]: 1.06 ± 0.07 µM; ΔG0, Gibbs free energy of interaction [1]: -8.15 kcal/mol; remaining activity at 100 µM (TvxNT3; 100 µM inhibitor, 50 nM [3H]-adenosine): < 25%; Ki [2]: 1.8 ± 0.3 µM; Tbb P1 ΔG0 [2]: -7.82 kcal/mol |
| Nc1nccc2c1ncn2[C@@H]1O[C@H](CO)[C@@H](O)[C@H]1O [3-deazaadenosine] | – | 138 ± 37 µM | -5.26 kcal/mol | 3.44 kcal/mol and 3.435 kcal/mol | – | – |
| OC[C@H]1O[C@@H](n2cnc3cncnc32)[C@H](O)[C@@H]1O [Nebularine] | -7.27 kcal/mol | – | – | – | -0.703 kcal/mol | δ(ΔG0) (TvxNT3; listed as nebularine): 0.693 kcal/mol |
| Cc1cn([C@H]2C[C@H](O)[C@@H](CO)O2)c(=O)[nH]c1=O [Thymidine] | -4.391 kcal/mol | 434 ± 46.4 µM | -4.59 kcal/mol | 4.113 kcal/mol | -3.587 kcal/mol | Ki [1]: 94.6 ± 11.5 µM; ΔG0, Gibbs free energy of interaction [1]: -5.5 kcal/mol; Ki values fold higher than those for the purines [1]: > 90 fold; Ki (TcoAT1; listed as TMD): 49.6 µM; Ki [2]: 44 ± 10 µM |
| C[C@H]1O[C@@H](n2cnc3c(N)ncnc32)[C@H](O)[C@@H]1O [5′-deoxyadenosine] | -8.13 kcal/mol | 0.45 ± 0.08 µM | -8.65 kcal/mol | 0.043 kcal/mol | 0.151 kcal/mol | – |
| O=c1[nH]cnc2nc[nH]c12 [Hypoxanthine] | -7.851 kcal/mol | 61.2 ± 3.26 µM | -5.74 kcal/mol | 2.792 kcal/mol | -1.78 kcal/mol | δ(ΔG0) (TvxNT3; listed as hypoxanthine): 1.34 kcal/mol; remaining activity at 100 µM (TvxNT3): < 25% |
| Nc1ncnc2[nH]cnc12 [Adenine] | -7.658 kcal/mol | 761 ± 103 µM | -4.25 kcal/mol | 4.446 kcal/mol | -0.32 kcal/mol | Ki (TcoAT1; listed as ADE): 786 µM; δ(ΔG0) (TvxNT3; listed as adenine): 0.32 kcal/mol; remaining activity at 100 µM (TvxNT3): < 25% |
| O=c1ccn([C@@H]2O[C@H](CO)[C@@H](O)[C@H]2O)c(=O)[nH]1 [Uridine] | -4.285 kcal/mol | 1470 ± 172 µM | -3.87 kcal/mol | 4.835 kcal/mol | -3.693 kcal/mol | Ki [1]: 390 ± 9.1 µM; ΔG0, Gibbs free energy of interaction [1]: -4.64 kcal/mol; Ki values fold higher than those for the purines [1]: > 90 fold; Ki (TcoAT1; listed as URD): 147 µM; Ki [2]: 830 ± 86 µM; Tbb P1 ΔG0 [2]: -4.47 kcal/mol |
